Among the data in ChEMBL document CHEMBL5376012, “Consensus screening for a challenging target: the quest for P-glycoprotein inhibitors” (RSC Med Chem, 2024) are Activity and IC50 values, retold here.

Broadly, the IC50 is the concentration that gives 50% inhibition.

The source made the active and inactive calls. No cut-off for these calls is given here.

Experiment [1] relates to Caco-2. Nature of the experiment: Cytotoxicity against colchicine and vincristine stimulated human Caco-2 cells assessed as reduction in cell viability at 10 uM preincubated for 30 mins followed by colchicine and vincristine addition for 24 hrs by CCK-8 assay relative to control. Type of experiment: functional. Conditions: time 24.5 hrs.
Experiment [2] addresses ATP-dependent translocase ABCB1 (Homo sapiens, UniProt P08183). Nature of the experiment: Inhibition of human recombinant P-gp ATPase activity in isolated membranes incubated in presence of verapamil by firefly luciferase based luminescence analysis. The experiment is classed as cell membranes.
The test system of experiment [3] is Caco-2. Briefly: Cytotoxicity against colchicine and vincristine stimulated human Caco-2 cells assessed as reduction in cell viability at 10 uM preincubated for 30 mins followed by colchicine and vincristine addition for 24 hrs by CCK-8 assay. Type of experiment: functional, cell-based. Conditions: time 24.5 hrs.

ATP-dependent translocase ABCB1, sequence (P08183 whole entry): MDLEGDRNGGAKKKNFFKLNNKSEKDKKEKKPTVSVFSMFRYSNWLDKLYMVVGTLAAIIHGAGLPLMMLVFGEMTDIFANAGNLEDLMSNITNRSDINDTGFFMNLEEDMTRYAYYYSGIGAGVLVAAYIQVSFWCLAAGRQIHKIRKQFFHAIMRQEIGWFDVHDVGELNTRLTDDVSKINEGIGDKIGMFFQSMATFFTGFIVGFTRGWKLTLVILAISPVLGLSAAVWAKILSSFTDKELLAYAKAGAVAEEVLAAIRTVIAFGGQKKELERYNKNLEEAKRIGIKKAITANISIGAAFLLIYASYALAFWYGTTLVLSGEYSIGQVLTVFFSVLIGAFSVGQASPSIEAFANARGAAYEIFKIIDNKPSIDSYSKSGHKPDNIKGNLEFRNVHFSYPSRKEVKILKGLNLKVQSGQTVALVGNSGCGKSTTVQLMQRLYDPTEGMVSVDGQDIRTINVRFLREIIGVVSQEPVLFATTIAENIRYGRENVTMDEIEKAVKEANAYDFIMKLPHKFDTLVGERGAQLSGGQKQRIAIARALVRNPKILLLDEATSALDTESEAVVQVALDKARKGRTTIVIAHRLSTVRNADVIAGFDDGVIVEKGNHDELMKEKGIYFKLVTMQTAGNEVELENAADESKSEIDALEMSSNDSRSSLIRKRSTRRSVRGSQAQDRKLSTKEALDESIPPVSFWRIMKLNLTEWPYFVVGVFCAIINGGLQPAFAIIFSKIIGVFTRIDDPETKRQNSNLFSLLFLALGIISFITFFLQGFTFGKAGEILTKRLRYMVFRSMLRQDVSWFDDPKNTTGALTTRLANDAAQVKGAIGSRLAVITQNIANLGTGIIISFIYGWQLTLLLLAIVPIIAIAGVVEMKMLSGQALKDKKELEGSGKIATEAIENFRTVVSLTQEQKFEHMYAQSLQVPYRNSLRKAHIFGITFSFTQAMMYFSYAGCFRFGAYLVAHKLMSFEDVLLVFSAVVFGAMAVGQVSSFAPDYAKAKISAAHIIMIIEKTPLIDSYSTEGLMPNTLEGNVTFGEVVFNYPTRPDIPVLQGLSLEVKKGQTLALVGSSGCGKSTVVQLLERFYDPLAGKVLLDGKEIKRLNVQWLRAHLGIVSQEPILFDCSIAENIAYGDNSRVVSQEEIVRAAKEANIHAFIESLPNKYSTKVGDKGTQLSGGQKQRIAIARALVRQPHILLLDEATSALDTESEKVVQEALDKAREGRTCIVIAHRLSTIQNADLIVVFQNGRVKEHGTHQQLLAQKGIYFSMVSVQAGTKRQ

With `COc1cc([C@@H](CC(=O)NCCC(=O)Nc2ccccn2)C2=C(O)[C@@]3(Oc4c(Cl)c(OC)cc(OC)c4C3=O)[C@H](C)CC2=O)ccc1O`, in the experiment on Caco-2 [1], the Activity is listed as 30%. Besides, the concentration for half-maximal inhibition (IC50) in experiment [2] worked out at 1.28 µM.

In the case of `CC(C)(C)OC(=O)N[C@H](Cc1ccc(OC(=O)OC(C)(C)C)cc1)C(=O)NCCCC(=O)Oc1ccc2c(=O)c(Oc3ccccc3F)coc2c1`, the concentration for half-maximal inhibition (IC50) in experiment [2] was over 50 µM.

Take `COc1cc(CCNC(=O)C[C@@H](C2=C(O)[C@@]3(Oc4c(Cl)c(OC)cc(OC)c4C3=O)[C@H](C)CC2=O)c2ccc(SC)cc2)c([N+](=O)[O-])cc1OC`: the Activity with Caco-2 [1] is 30%. The IC50 in experiment [2] turned out to be 2.4 µM.

As to `COc1cc([C@@H](CC(=O)NCCCN2CCOCC2)C2=C(O)[C@@]3(Oc4c(Cl)c(OC)cc(OC)c4C3=O)[C@H](C)CC2=O)ccc1O`, the Activity in the experiment on Caco-2 [1] is reported as 30%. The IC50 in experiment [2] was 3.31 µM.

On to `COC(=O)C[C@@H](c1ccc(-c2cc(C(=O)O)ccc2Cl)o1)c1oc(CN2CCN(c3ccc(OC)cc3)CC2)cc(=O)c1O`, for which the Activity in the experiment with Caco-2 [1] came out at 30%. In addition, the IC50 in experiment [2] is 4.99 µM.

As to `COC(=O)[C@@H](Cc1cccc([N+](=O)[O-])c1O)NC(=O)CCC(=O)OCC(=O)[C@@]1(O)CC[C@@H]2[C@@H]3CCC4=CC(=O)CC[C@]4(C)[C@@H]3CC[C@@]21C`, in experiment [2], the IC50 was found to be 7.9 µM.

Turning to `O=C(O)[C@H]1O[C@@H](Oc2cc3oc(-c4ccc(O)cc4)cc(=O)c3c(O)c2O)[C@H](O)[C@@H](O)[C@@H]1O` [SCUTELLARIN], the IC50 in experiment [2] was found to be 19.7 µM.

With `COc1ccc2c(c1)[C@H](CCNC(=O)C[C@@H](C1=C(O)[C@@]3(Oc4c(Cl)c(OC)cc(OC)c4C3=O)[C@H](C)CC1=O)c1ccc(O)c(OC)c1)C(=O)N2`, in experiment [2], the IC50 was over 50 µM.

With `CC(C)C[C@H](NC(=O)[C@H]1CCCN1C(=O)[C@@H](C)NC(=O)COc1cc(O)c2c(=O)c(-c3ccc4c(c3)OCCO4)coc2c1)C(=O)CC(N)=O`, in experiment [2], the concentration for half-maximal inhibition (IC50) was over 50 µM. Also, the outcome with Caco-2 [3] was inactive.

As to `COc1ccc(-c2coc3c4c(cc(O)c3c2=O)OC(=O)C[C@H]4c2ccc(OCc3nccn3C)c(OC)c2)cc1OC`, the Activity with Caco-2 [1] worked out at 30%. In experiment [2], the half-maximal inhibitory concentration (IC50) is 4.8 µM.

Take `CCOC(=O)c1cccc(NC(=O)O[C@@H]2CO[C@H]3[C@@H]2OC[C@@H]3NS(=O)(=O)c2cc(OC)ccc2OC)c1`: in experiment [2], the IC50 is over 50 µM. For the same molecule, in the experiment on Caco-2 [3], the result was inactive.

As for `CC(=O)c1c(O)c(C)c(O)c2c1OC1=CC(=O)/C(=C(/C)Nc3cc(-c4nnn(CC(=O)O)n4)ccc3O)C(=O)[C@@]12C`, the Activity in the experiment on Caco-2 [1] turned out to be 30%. In addition, the IC50 in experiment [2] amounted to 3.17 µM.
